Measurements as given in PubChem BioAssay (NCI).
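Five concentrations, 48 hours, 96-well plates. Here, GI50 denotes the concentration required for 50% inhibition of growth. At the TGI there is no net growth.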

Columns and labels:
Test in all cases: DTP human tumour cell line panel, 48 h
786-0 renal = tested on: 786-0 renal
A498 renal = tested on: A498 renal
A549 NSCLC = tested on: A549 NSCLC
ACHN renal = tested on: ACHN renal
BT-549 breast = tested on: BT-549 breast
CAKI-1 renal = tested on: CAKI-1 renal
CCRF-CEM leukemia = tested on: CCRF-CEM leukemia
COLO 205 colon = tested on: COLO 205 colon
DU-145 prostate = tested on: DU-145 prostate
EKVX NSCLC = tested on: EKVX NSCLC
HCC-2998 colon = tested on: HCC-2998 colon
HCT-116 colon = tested on: HCT-116 colon
HCT-15 colon = tested on: HCT-15 colon
HL-60(TB) leukemia = tested on: HL-60(TB) leukemia
HOP-62 NSCLC = tested on: HOP-62 NSCLC
HOP-92 NSCLC = tested on: HOP-92 NSCLC
HS 578T breast = tested on: HS 578T breast
HT29 colon = tested on: HT29 colon
IGROV1 ovarian = tested on: IGROV1 ovarian
K-562 leukemia = tested on: K-562 leukemia
KM12 colon = tested on: KM12 colon
LOX IMVI melanoma = tested on: LOX IMVI melanoma
M14 melanoma = tested on: M14 melanoma
MALME-3M melanoma = tested on: MALME-3M melanoma
MCF7 breast = tested on: MCF7 breast
MDA-MB-231 breast = tested on: MDA-MB-231 breast
MDA-MB-435 = tested on: MDA-MB-435
MDA-MB-468 breast = tested on: MDA-MB-468 breast
MOLT-4 leukemia = tested on: MOLT-4 leukemia

SMILES: Cc1ccc(C(=O)CSc2nc3ccc(F)cc3c(=O)n2-c2ccc(Cl)cc2)cc1
- GI50 (786-0 renal): 11.1 µM
- TGI (786-0 renal): > 100 µM
- GI50 (A498 renal): > 100 µM
- TGI (A498 renal): > 100 µM
- GI50 (A549 NSCLC): > 100 µM
- TGI (A549 NSCLC): > 100 µM
- GI50 (ACHN renal): 6.83 µM
- TGI (ACHN renal): > 100 µM
- GI50 (BT-549 breast): 11.2 µM
- TGI (BT-549 breast): > 100 µM
- GI50 (CAKI-1 renal): 4.49 µM
- TGI (CAKI-1 renal): 44.5 µM
- GI50 (CCRF-CEM leukemia): > 100 µM
- TGI (CCRF-CEM leukemia): > 100 µM
- GI50 (COLO 205 colon): > 100 µM
- TGI (COLO 205 colon): > 100 µM
- GI50 (DU-145 prostate): 59.5 µM
- TGI (DU-145 prostate): > 100 µM
- GI50 (EKVX NSCLC): > 100 µM
- TGI (EKVX NSCLC): > 100 µM
- GI50 (HCC-2998 colon): > 100 µM
- TGI (HCC-2998 colon): > 100 µM
- GI50 (HCT-116 colon): > 100 µM
- TGI (HCT-116 colon): > 100 µM
- GI50 (HCT-15 colon): > 100 µM
- TGI (HCT-15 colon): > 100 µM
- GI50 (HL-60(TB) leukemia): > 100 µM
- TGI (HL-60(TB) leukemia): > 100 µM
- GI50 (HOP-62 NSCLC): 3.95 µM
- TGI (HOP-62 NSCLC): 50.4 µM
- GI50 (HOP-92 NSCLC): 5 µM
- TGI (HOP-92 NSCLC): 57.5 µM
- GI50 (HS 578T breast): 3.41 µM
- TGI (HS 578T breast): 86.2 µM
- GI50 (HT29 colon): > 100 µM
- TGI (HT29 colon): > 100 µM
- GI50 (IGROV1 ovarian): 27.1 µM
- TGI (IGROV1 ovarian): > 100 µM
- GI50 (K-562 leukemia): > 100 µM
- TGI (K-562 leukemia): > 100 µM
- GI50 (KM12 colon): > 100 µM
- TGI (KM12 colon): > 100 µM
- GI50 (LOX IMVI melanoma): 4.04 µM
- TGI (LOX IMVI melanoma): > 100 µM
- GI50 (M14 melanoma): > 100 µM
- TGI (M14 melanoma): > 100 µM
- GI50 (MALME-3M melanoma): 66.7 µM
- TGI (MALME-3M melanoma): > 100 µM
- GI50 (MCF7 breast): > 100 µM
- TGI (MCF7 breast): > 100 µM
- GI50 (MDA-MB-231 breast): 15.1 µM
- TGI (MDA-MB-231 breast): > 100 µM
- GI50 (MDA-MB-435): > 100 µM
- TGI (MDA-MB-435): > 100 µM
- GI50 (MDA-MB-468 breast): 82.9 µM
- TGI (MDA-MB-468 breast): > 100 µM
- GI50 (MOLT-4 leukemia): > 100 µM
